Assay results from article PMC5078040 (Oncotarget, 2016).

Experiments:
Experiment in all cases: KinomeScan
Assay type in all cases: binding
Conditions in all cases: 1uM
[1] = molecular target: T1, AXL (Homo sapiens, UniProt P30530)
T1 construct: purchased DiscoveRx KINOMEscan

[2] = molecular target: T2, BMPR2 (Homo sapiens, UniProt Q13873)
T2 construct: purchased DiscoveRx KINOMEscan

[3] = molecular target: T3, BRAF (Homo sapiens, UniProt P15056)
T3 construct: purchased DiscoveRx KINOMEscan

[4] = molecular target: T4, CDK4-cyclinD1 (Homo sapiens, UniProt P11802)
T4 construct: purchased DiscoveRx KINOMEscan

[5] = molecular target: T5, CDK4-cyclinD3 (Homo sapiens, UniProt P11802)
T5 construct: purchased DiscoveRx KINOMEscan

[6] = molecular target: T6, CDK7 (Homo sapiens, UniProt P50613)
T6 construct: purchased DiscoveRx KINOMEscan

[7] = molecular target: T7, CSNK2A2 (Homo sapiens, UniProt P19784)
T7 construct: purchased DiscoveRx KINOMEscan

[8] = molecular target: T8, DCAMKL2 (Homo sapiens, UniProt Q8N568)
T8 construct: purchased DiscoveRx KINOMEscan

[9] = molecular target: T9, DYRK2 (Homo sapiens, UniProt Q92630)
T9 construct: purchased DiscoveRx KINOMEscan

[10] = molecular target: T10, EGFR(G719S) (Homo sapiens, UniProt P00533, G719S)
T10 construct: purchased DiscoveRx KINOMEscan

[11] = molecular target: T11, ERK4 (Homo sapiens, UniProt P31152)
T11 construct: purchased DiscoveRx KINOMEscan

[12] = molecular target: T12, FGFR2 (Homo sapiens, UniProt P21802)
T12 construct: purchased DiscoveRx KINOMEscan

[13] = molecular target: T13, FLT3 (Homo sapiens, UniProt P36888)
T13 construct: purchased DiscoveRx KINOMEscan

[14] = molecular target: T14, INSR (Homo sapiens, UniProt P06213)
T14 construct: purchased DiscoveRx KINOMEscan

[15] = molecular target: T15, JAK3(JH1domain-catalytic) (Homo sapiens, UniProt P52333)
T15 construct: JAK3(JH1domain-catalytic); purchased DiscoveRx KINOMEscan

[16] = molecular target: T16, JNK3 (Homo sapiens, UniProt P53779)
T16 construct: purchased DiscoveRx KINOMEscan

[17] = molecular target: T17, LTK (Homo sapiens, UniProt P29376)
T17 construct: purchased DiscoveRx KINOMEscan

[18] = molecular target: T18, MAP3K15 (Homo sapiens, UniProt Q6ZN16)
T18 construct: purchased DiscoveRx KINOMEscan

[19] = molecular target: T19, MARK3 (Homo sapiens, UniProt P27448)
T19 construct: purchased DiscoveRx KINOMEscan

[20] = molecular target: T20, MLK1 (Homo sapiens, UniProt P80192)
T20 construct: purchased DiscoveRx KINOMEscan

[21] = molecular target: T21, MLK3 (Homo sapiens, UniProt Q16584)
T21 construct: purchased DiscoveRx KINOMEscan

[22] = molecular target: T22, MST3 (Homo sapiens, UniProt Q9Y6E0)
T22 construct: purchased DiscoveRx KINOMEscan

[23] = molecular target: T23, MYO3A (Homo sapiens, UniProt Q8NEV4)
T23 construct: purchased DiscoveRx KINOMEscan

[24] = molecular target: T24, NEK1 (Homo sapiens, UniProt Q96PY6)
T24 construct: purchased DiscoveRx KINOMEscan

[25] = molecular target: T25, PCTK3 (Homo sapiens, UniProt Q07002)
T25 construct: purchased DiscoveRx KINOMEscan

[26] = molecular target: T26, PFTAIRE2 (Homo sapiens, UniProt Q96Q40)
T26 construct: purchased DiscoveRx KINOMEscan

[27] = molecular target: T27, PIP5K1A (Homo sapiens, UniProt Q99755)
T27 construct: purchased DiscoveRx KINOMEscan

[28] = molecular target: T28, PKAC-beta (Homo sapiens, UniProt P22694)
T28 construct: purchased DiscoveRx KINOMEscan

[29] = molecular target: T29, PLK2 (Homo sapiens, UniProt Q9NYY3)
T29 construct: purchased DiscoveRx KINOMEscan

[30] = molecular target: T30, PRKCI (Homo sapiens, UniProt P41743)
T30 construct: purchased DiscoveRx KINOMEscan

[31] = molecular target: T31, PRKD1 (Homo sapiens, UniProt Q15139)
T31 construct: purchased DiscoveRx KINOMEscan

[32] = molecular target: T32, RIOK2 (Homo sapiens, UniProt Q9BVS4)
T32 construct: purchased DiscoveRx KINOMEscan

[33] = molecular target: T33, RPS6KA4(Kin.Dom.1-N-terminal) (Homo sapiens, UniProt O75676)
T33 construct: RPS6KA4(Kin.Dom.1-N-terminal); purchased DiscoveRx KINOMEscan

[34] = molecular target: T34, RSK1(Kin.Dom.1-N-terminal) (Homo sapiens, UniProt Q15418)
T34 construct: RSK1(Kin.Dom.1-N-terminal); purchased DiscoveRx KINOMEscan

[35] = molecular target: T35, S6K1 (Homo sapiens, UniProt P23443)
T35 construct: purchased DiscoveRx KINOMEscan

[36] = molecular target: T36, SIK2 (Homo sapiens, UniProt Q9H0K1)
T36 construct: purchased DiscoveRx KINOMEscan

[37] = molecular target: T37, SLK (Homo sapiens, UniProt Q9H2G2)
T37 construct: purchased DiscoveRx KINOMEscan

[38] = molecular target: T38, SRMS (Homo sapiens, UniProt Q9H3Y6)
T38 construct: purchased DiscoveRx KINOMEscan

[39] = molecular target: T39, TGFBR2 (Homo sapiens, UniProt P37173)
T39 construct: purchased DiscoveRx KINOMEscan

[40] = molecular target: T40, TNIK (Homo sapiens, UniProt Q9UKE5)
T40 construct: purchased DiscoveRx KINOMEscan

[41] = molecular target: T41, WEE2 (Homo sapiens, UniProt P0C1S8)
T41 construct: purchased DiscoveRx KINOMEscan

[42] = molecular target: T42, YANK3 (Homo sapiens, UniProt Q86UX6)
T42 construct: purchased DiscoveRx KINOMEscan

[43] = molecular target: T43, ZAK (Homo sapiens, UniProt Q9NYL2)
T43 construct: purchased DiscoveRx KINOMEscan

T20 sequence (P80192 whole entry): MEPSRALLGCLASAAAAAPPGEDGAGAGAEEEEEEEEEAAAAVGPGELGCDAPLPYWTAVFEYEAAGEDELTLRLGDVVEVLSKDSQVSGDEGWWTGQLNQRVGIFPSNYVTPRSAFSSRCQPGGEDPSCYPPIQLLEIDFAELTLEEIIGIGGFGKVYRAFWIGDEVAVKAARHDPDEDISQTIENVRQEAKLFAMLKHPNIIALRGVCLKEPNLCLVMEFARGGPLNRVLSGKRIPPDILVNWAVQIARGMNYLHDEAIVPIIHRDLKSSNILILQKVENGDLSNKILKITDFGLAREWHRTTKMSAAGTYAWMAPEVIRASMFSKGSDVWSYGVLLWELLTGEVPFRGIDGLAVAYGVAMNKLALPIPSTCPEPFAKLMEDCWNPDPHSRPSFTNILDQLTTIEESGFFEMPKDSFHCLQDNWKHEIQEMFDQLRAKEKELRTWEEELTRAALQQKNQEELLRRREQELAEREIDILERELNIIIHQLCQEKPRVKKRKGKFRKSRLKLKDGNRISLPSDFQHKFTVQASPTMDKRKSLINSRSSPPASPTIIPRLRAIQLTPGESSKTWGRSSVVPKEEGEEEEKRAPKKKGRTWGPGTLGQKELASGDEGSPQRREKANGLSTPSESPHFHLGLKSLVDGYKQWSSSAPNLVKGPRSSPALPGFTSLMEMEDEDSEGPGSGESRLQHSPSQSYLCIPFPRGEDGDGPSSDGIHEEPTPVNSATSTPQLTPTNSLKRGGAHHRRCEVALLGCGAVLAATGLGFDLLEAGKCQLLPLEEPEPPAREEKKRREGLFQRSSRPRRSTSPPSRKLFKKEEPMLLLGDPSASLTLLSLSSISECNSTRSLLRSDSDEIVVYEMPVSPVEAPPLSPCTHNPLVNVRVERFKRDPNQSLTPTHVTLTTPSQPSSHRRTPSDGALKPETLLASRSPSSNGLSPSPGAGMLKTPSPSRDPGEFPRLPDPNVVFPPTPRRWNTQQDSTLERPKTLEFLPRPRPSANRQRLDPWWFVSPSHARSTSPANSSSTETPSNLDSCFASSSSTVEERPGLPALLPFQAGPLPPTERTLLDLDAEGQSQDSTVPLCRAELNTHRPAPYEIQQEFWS
T8 sequence (Q8N568 whole entry): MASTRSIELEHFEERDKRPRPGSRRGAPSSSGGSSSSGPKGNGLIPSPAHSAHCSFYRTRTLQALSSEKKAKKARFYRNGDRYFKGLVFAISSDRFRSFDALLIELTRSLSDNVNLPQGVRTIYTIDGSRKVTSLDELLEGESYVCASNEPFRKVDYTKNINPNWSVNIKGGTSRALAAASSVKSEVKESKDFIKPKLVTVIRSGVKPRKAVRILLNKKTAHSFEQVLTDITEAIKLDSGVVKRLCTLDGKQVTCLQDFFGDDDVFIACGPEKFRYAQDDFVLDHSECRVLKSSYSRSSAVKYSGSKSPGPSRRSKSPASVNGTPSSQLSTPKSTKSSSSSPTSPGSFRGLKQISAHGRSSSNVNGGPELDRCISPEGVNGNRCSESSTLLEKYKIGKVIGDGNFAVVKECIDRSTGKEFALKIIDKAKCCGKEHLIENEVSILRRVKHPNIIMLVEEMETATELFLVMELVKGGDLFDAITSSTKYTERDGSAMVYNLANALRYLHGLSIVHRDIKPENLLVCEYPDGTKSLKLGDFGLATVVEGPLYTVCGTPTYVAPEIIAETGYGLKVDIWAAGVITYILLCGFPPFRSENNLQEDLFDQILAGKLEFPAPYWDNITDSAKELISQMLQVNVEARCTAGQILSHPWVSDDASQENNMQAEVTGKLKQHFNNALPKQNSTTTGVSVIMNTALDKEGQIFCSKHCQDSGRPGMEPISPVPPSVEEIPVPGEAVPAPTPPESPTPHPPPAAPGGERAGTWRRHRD
T36 sequence (Q9H0K1 whole entry): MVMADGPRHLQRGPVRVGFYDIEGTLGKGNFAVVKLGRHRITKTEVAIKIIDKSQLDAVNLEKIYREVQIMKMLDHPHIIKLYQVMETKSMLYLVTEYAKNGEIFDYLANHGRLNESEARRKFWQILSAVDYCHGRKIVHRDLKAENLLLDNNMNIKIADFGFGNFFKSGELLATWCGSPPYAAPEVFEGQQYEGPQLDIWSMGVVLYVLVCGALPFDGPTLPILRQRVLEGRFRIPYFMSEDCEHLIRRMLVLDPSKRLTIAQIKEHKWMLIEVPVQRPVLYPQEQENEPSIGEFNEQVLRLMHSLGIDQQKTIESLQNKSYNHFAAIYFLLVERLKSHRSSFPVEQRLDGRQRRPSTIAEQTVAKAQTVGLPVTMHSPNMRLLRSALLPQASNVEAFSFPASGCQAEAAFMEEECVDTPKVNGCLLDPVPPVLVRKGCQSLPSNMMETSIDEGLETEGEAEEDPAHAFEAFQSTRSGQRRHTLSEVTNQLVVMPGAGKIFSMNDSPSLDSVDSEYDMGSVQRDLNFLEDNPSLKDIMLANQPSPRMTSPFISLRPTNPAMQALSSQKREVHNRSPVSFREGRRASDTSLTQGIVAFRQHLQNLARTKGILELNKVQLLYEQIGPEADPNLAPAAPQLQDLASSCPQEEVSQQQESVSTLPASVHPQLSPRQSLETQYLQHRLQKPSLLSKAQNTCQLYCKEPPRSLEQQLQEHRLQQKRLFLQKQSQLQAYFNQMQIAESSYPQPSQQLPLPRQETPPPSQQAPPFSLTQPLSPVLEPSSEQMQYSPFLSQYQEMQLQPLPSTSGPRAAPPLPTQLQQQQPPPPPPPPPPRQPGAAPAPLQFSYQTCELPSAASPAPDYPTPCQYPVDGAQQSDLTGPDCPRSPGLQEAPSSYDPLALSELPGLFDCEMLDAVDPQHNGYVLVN
T40 sequence (Q9UKE5 whole entry): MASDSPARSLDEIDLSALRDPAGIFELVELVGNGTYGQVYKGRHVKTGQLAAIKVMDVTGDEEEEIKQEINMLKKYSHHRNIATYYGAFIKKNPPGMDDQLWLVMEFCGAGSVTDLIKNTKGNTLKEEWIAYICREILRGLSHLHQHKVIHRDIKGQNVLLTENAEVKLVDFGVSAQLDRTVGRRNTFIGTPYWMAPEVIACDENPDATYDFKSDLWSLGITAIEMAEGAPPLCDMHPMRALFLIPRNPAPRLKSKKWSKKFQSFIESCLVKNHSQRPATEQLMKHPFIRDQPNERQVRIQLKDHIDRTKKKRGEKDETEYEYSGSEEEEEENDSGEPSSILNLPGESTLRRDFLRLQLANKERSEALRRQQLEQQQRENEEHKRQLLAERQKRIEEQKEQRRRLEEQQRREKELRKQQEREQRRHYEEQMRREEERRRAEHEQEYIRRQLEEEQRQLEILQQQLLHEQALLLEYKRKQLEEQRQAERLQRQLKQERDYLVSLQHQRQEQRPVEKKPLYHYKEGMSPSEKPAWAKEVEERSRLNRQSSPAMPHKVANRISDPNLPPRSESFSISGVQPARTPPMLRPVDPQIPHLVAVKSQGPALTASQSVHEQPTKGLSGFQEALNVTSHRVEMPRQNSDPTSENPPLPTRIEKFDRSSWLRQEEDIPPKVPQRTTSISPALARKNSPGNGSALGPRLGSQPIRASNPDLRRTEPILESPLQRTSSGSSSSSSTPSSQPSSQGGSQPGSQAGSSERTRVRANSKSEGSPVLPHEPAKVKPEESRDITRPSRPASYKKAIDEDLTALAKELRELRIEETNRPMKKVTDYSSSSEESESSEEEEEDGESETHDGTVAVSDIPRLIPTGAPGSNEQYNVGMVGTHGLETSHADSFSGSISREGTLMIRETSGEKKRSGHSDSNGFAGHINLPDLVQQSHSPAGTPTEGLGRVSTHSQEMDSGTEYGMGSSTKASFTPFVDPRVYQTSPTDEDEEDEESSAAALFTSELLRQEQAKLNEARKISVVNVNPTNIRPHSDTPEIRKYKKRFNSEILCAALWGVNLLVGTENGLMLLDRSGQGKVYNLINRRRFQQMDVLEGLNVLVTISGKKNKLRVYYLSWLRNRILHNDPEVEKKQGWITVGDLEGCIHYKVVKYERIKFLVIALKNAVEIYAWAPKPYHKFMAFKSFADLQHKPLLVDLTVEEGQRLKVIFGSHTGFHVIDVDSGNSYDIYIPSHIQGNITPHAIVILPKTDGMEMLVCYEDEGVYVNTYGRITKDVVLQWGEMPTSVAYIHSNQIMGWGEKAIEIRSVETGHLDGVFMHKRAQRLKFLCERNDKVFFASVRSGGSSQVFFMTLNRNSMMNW
T27 sequence (Q99755 whole entry): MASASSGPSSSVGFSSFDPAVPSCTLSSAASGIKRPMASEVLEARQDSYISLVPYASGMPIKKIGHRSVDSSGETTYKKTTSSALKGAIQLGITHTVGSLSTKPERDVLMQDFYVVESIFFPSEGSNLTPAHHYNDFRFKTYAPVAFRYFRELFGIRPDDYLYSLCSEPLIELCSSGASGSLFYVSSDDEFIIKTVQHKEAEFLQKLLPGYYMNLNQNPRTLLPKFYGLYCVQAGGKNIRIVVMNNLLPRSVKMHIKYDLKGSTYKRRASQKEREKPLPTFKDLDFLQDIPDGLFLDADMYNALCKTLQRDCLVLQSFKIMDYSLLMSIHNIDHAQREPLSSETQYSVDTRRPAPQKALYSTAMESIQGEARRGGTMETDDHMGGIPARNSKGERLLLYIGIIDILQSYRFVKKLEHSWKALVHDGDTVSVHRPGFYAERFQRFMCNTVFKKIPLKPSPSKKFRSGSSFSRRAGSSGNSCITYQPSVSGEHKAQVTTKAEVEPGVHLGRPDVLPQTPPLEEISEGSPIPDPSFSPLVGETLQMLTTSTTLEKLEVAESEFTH
T33 sequence (O75676 1-371 limits assumed): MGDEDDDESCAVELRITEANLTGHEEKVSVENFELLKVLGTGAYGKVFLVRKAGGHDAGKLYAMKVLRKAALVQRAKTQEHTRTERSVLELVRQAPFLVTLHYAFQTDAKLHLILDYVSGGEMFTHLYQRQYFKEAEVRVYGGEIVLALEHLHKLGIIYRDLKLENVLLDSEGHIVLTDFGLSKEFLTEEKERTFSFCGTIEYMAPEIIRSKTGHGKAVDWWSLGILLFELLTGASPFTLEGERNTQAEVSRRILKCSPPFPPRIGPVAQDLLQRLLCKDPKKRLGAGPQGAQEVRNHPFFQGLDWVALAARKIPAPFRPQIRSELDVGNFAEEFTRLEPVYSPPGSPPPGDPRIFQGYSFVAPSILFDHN

## Cc1nc(NC(=O)[C@@H](N)C(C)C)sc1-c1cnc(Cl)c(NS(=O)(=O)c2ccccc2)c1 [PI3KD-IN-015]
[1]
  KinomeScan AXL: 97
[2]
  KinomeScan BMPR2: 96
[3]
  KinomeScan BRAF: 93
[4]
  KinomeScan CDK4-cyclinD1: 90
[5]
  KinomeScan CDK4-cyclinD3: 100
[6]
  KinomeScan CDK7: 100
[7]
  KinomeScan CSNK2A2: 39
[8]
  KinomeScan DCAMKL2: 100
[9]
  KinomeScan DYRK2: 100
[10]
  KinomeScan EGFR(G719S): 100
[11]
  KinomeScan ERK4: 100
[12]
  KinomeScan FGFR2: 100
[13]
  KinomeScan FLT3: 100
[14]
  KinomeScan INSR: 74
[15]
  KinomeScan JAK3(JH1domain-catalytic): 98
[16]
  KinomeScan JNK3: 100
[17]
  KinomeScan LTK: 100
[18]
  KinomeScan MAP3K15: 80
[19]
  KinomeScan MARK3: 100
[20]
  KinomeScan MLK1: 100
[21]
  KinomeScan MLK3: 100
[22]
  KinomeScan MST3: 96
[23]
  KinomeScan MYO3A: 94
[24]
  KinomeScan NEK1: 100
[25]
  KinomeScan PCTK3: 100
[26]
  KinomeScan PFTAIRE2: 100
[27]
  KinomeScan PIP5K1A: 84
[28]
  KinomeScan PKAC-beta: 87
[29]
  KinomeScan PLK2: 83
[30]
  KinomeScan PRKCI: 100
[31]
  KinomeScan PRKD1: 100
[32]
  KinomeScan RIOK2: 72
[33]
  KinomeScan RPS6KA4(Kin.Dom.1-N-terminal): 86
[34]
  KinomeScan RSK1(Kin.Dom.1-N-terminal): 74
[35]
  KinomeScan S6K1: 100
[36]
  KinomeScan SIK2: 95
[37]
  KinomeScan SLK: 100
[38]
  KinomeScan SRMS: 90
[39]
  KinomeScan TGFBR2: 100
[40]
  KinomeScan TNIK: 95
[41]
  KinomeScan WEE2: 100
[42]
  KinomeScan YANK3: 97
[43]
  KinomeScan ZAK: 100
